Reference: patent US20230309522A1, “ANIMAL MODEL, METHODS FOR MAKING AND USING THEREOF, AND COMPOSITION FOR TREATING ATAXIA” (priority 2022, published 2023)
Marks after values point to notes of the source that are not given here.

Experiments:
Format in all cases: in vivo, mouse
C57BU6J mice [1] = assay: Irregular ladder test on 3AP-induced ataxia mice
From the text: (§1) Four different behavior tests were used in the present disclosure: footprint, irregular ladder, rotarod and body balance (elevated beam) tests. These behavior tests have been widely used for detection of ataxia^40-42. Two different time durations were used to differentiate the peak and trough expressions of the Bmal1 gene. i.e., daytime described herein refers to seven hours later after light exposure (˜2 pm); nighttime described herein refers to four hours later after dim light ([…]). These behavior tests were carried out at daytime (˜2 pm) and nighttime (˜11 pm), given the differential expression of Bmal1 in cerebellum having the highest level at ˜2 pm and the lowest level at ˜11 pm.
Irregular ladder test: A mouse was requested to walk through an irregularly arranged ladder with a distance of 85 cm and a width of 5 cm. Every single slip during walk steps was counted as a failure of gait and balance measurement.

Bmal1 = assay: Quantitative RT-PCR of brain regions, Bmal1 mRNA
Procedure: (§2) To prepare RNA by RT-PCR, mice were deeply anesthetized with isoflurane inhalation. […] Total RNA was extracted by TRIzol reagent-based procedure (Thermofisher scientific, USA) and quantified by NanoDrop 2000 spectrophotometer ([…], USA). The total RNA obtained (20 μg) was reverse-transcribed to synthesize complementary DNA (cDNA) using a first-strand cDNA synthesis kit (Takara. Japan). Quantitative assays were performed on each cDNA using the primers listed in Table 3 with SYBR® Premix Ex Taq™ (Takara, Japan) in the given cycling condition (95° C. for 30 seconds, 32 cycles of 95° C. for 5 seconds and 60° C. for 30 seconds), as provided by the manufacturer's instruction.

Clock = assay: Quantitative RT-PCR of brain regions, Clock mRNA
Procedure: as §2

C57BU6J mice [2] = assay: Footprint test on 3AP-induced ataxia mice
From the text: as §1
Footprint test: Three measurements were included: i) front paw distance; ii) hind paw distance; and iii) stride. The footprint behavior tool was custom-made to have a narrow, foot-printable glass plate with the length of 85 cm and the width of 5 cm. Each paw distance was measured with footsteps printed during the walking across the narrow road.

Per1 = assay: Quantitative RT-PCR of brain regions, Per1 mRNA
Procedure: as §2

C57BU6J mice [3] = assay: Determining the least concentration of 3AP for induction of ataxia-like behaviors: survival time
Procedure: Six to seven-week-old C57BU6J and B6.129-Arnt1^tm1Bra/J (Bmal1 gene-deficient mice) male mice were used for all experiments described hereinafter. All experiments were performed on mice anesthetized by an intraperitoneal (i.p.) injection of 100 mg ketamine/kg and 20 mg xylazine/kg, based on their body weights.
In this example, a chemically-induced ataxia animal model was established upon systematic application of 3AP^19,20. Besides systematic (i.e. intraperitoneal, i.p., injection), local injection [in cerebellum, coordinate (Bregma): −7.08, 0, −2.1] of 3AP in C57BU6J mice could also be used to generate the chemically-induced ataxia animal models^23-25. Initially, different concentrations of 3AP were applied for determining the least concentration of 3AP for life-long induction of ataxia-like behaviors (Table 1).

Tyrosine Hydrolase (TH) = assay: Immunohistochemistry of substantia nigra compacta, Tyrosine Hydrolase expression; conditions: 3AP ataxia model vs wildtype, FIGS. 6A and 6B
Procedure: (§3) The cerebellar tissue was isolated from anesthetized mice (six weeks old) and fixed with paraformaldehyde in […] (Thermofisher scientific, USA) and overnight at 4° C. The cerebellar tissue was then dehydrated by being incubated with PBS containing 30% sucrose at 4° C. then embedded in optimal cutting temperature (OCT) medium (Thermofisher scientific, USA) and frozen by using dry ice. The frozen tissues were cut with a cryostat (Thermo HM525NX Cryostat with UV Disinfection, Thermofisher scientific, USA) at 20 µm thickness and slices were placed on glass slides (Thermofisher scientific, USA). For immunohistochemical analysis, cerebellar tissue specimens were washed with PBS for 30 min and blocked with 10% bovine serum albumin (Sigma-Aldrich, USA) in PBST for 30 min at room temperature and then incubated with respective primary antibodies (Calbindin [8 μg/mL]: Invitrogen, USA; Tyrosine Hydrolase [1:400]: Invitrogen. USA) for overnight at 4° C. The specimens were further incubated with secondary antibodies (1:1500, Invitrogen. USA) for overnight at 4° C. […] The DAPI intensity and primary antibody (Calbindin or Tyrosine Hydrolase) intensity were recorded. The relative primary antibody intensity was calculated based on the following formula: […]

C57BU6J mice [4] = assay: Rotarod test on 3AP-induced ataxia mice; conditions: for motor learning, percentage change in rotarod performance: 3AP local; for rotarod-based motor behavior: 3AP-induced ataxia mice, FIG. 1C
From the text: as §1
Rotarod test: It has been widely used in determining general motor skills. In brief, mice walked on the rotarod with a width of 5 cm, a height of 20 cm and a diameter of 3 cm of rolling rods. The total time for mice to sustain on the rotarod in increasing speeds at a unit of revolution per minute (rpm) was taken for a measurement of motor skills such as balance and gait functions. Motor learning was calculated as a percentage change in the performance (at a maximum speed) over 5 min, 10 min or 15 min blocks sequentially.

Calbindin = assay: Immunohistochemistry of cerebellar tissue, relative calbindin intensity; conditions: 3AP-injected mice, relative to WT 1.00, FIG. 3C
Procedure: as §3

Cry1 = assay: Quantitative RT-PCR of brain regions, Cry1 mRNA
Procedure: as §2

C57BU6J mice [5] = assay: Elevated beam test on 3AP-induced ataxia mice
From the text: as §1
Elevated beam test: Every single slip was counted during the walking^43. Mice were requested to walk through a wall with a distance of 40 cm, a height of 16 cm and a width of 0.5 cm. All tests were conducted in a quiet environment without noise and bright light disturbance.

Structure (SMILES): CC(=O)c1cccnc1 [3AP, 3-acetyl pyridine]
- number of slips, irregular ladder (C57BU6J mice [1]; 3AP-induced ataxia mice, FIG. 1B, WT 1.61): 8.92±0.178
- number of slips, irregular ladder (C57BU6J mice [1]; local 3AP-intoxicated mice without Bmal1 viral vector, FIG. 4F, wildtype 0.87): 11.2±0.075
- Relative level of mRNA, Bmal1 (Bmal1; 25 mg 3AP, Cerebellum): 0.82
- Relative level of mRNA, Bmal1 (Bmal1; 25 mg 3AP, Inferior Olive): 0.85
- Relative level of mRNA, Bmal1 (Bmal1; 25 mg 3AP, Motor cortex): 0.93
- Relative level of mRNA, Bmal1 (Bmal1; 25 mg 3AP, Striatum): 0.94
- Relative level of mRNA, Bmal1 (Bmal1; 35 mg 3AP, Cerebellum, 0.00 = extremely low concentration or the absence of the gene tested): 0.00***
- Relative level of mRNA, Bmal1 (Bmal1; 35 mg 3AP, Inferior Olive, 0.00 = extremely low concentration or the absence of the gene tested): 0.00***
- Relative level of mRNA, Bmal1 (Bmal1; 35 mg 3AP, Motor cortex, 0.00 = extremely low concentration or the absence of the gene tested): 0.00***
- Relative level of mRNA, Bmal1 (Bmal1; 35 mg 3AP, Striatum, 0.00 = extremely low concentration or the absence of the gene tested): 0.00***
- mRNA expression of Bmal1 (Bmal1; local 3AP-intoxicated mice vs wildtype control, daytime, FIG. 3B): far reduced
- Relative level of mRNA, Clock (Clock; 25 mg 3AP, Cerebellum): 0.83
- Relative level of mRNA, Clock (Clock; 25 mg 3AP, Inferior Olive): 0.86
- Relative level of mRNA, Clock (Clock; 25 mg 3AP, Motor cortex): 0.93
- Relative level of mRNA, Clock (Clock; 25 mg 3AP, Striatum): 0.77
- Relative level of mRNA, Clock (Clock; 35 mg 3AP, Cerebellum): 0.94
- Relative level of mRNA, Clock (Clock; 35 mg 3AP, Inferior Olive): 0.59*
- Relative level of mRNA, Clock (Clock; 35 mg 3AP, Motor cortex): 0.82
- Relative level of mRNA, Clock (Clock; 35 mg 3AP, Striatum): 0.87
- front paw distance (C57BU6J mice [2]; 35 mg/kg 3AP-injected mice, FIG. 1A, WT 1.084): 0.832±0.112 cm
- hind paw distance (C57BU6J mice [2]; 35 mg/kg 3AP-injected mice, FIG. 1A, WT 2.09): 4.67±0.208 cm
- stride (C57BU6J mice [2]; 35 mg/kg 3AP-injected mice, FIG. 1A, WT 5.27): 1.11±0.088 cm
- hind paw distance (C57BU6J mice [2]; local 3AP-intoxicated mice without Bmal1 viral vector, FIG. 4C, wildtype 2.13): 4.28±0.314 cm
- stride (C57BU6J mice [2]; local 3AP-intoxicated mice without Bmal1 viral vector, FIG. 4D, wildtype 5.02): 1.10±0.124 cm
- front paw distance (C57BU6J mice [2]; local 3AP-intoxicated mice without Bmal1 viral vector, FIG. 4E, wildtype 1.12): 1.10±0.053 cm
- Relative level of mRNA, Per1 (Per1; 25 mg 3AP, Cerebellum): 0.81
- Relative level of mRNA, Per1 (Per1; 25 mg 3AP, Inferior Olive): 0.88
- Relative level of mRNA, Per1 (Per1; 25 mg 3AP, Motor cortex): 0.87
- Relative level of mRNA, Per1 (Per1; 25 mg 3AP, Striatum): 0.76
- Relative level of mRNA, Per1 (Per1; 35 mg 3AP, Cerebellum): 0.77
- Relative level of mRNA, Per1 (Per1; 35 mg 3AP, Inferior Olive): 0.90
- Relative level of mRNA, Per1 (Per1; 35 mg 3AP, Motor cortex): 0.87
- Relative level of mRNA, Per1 (Per1; 35 mg 3AP, Striatum): 0.86
- Survival time (C57BU6J mice [3]; 0.05 mg/kg, stereotaxic local injection to the cerebellum): No ataxia
- Survival time (C57BU6J mice [3]; 0.1 mg/kg, stereotaxic local injection to the cerebellum): >120 h
- Survival time (C57BU6J mice [3]; 0.15 mg/kg, stereotaxic local injection to the cerebellum): No survive
- Survival time (C57BU6J mice [3]; 0.2 mg/kg, stereotaxic local injection to the cerebellum): No survive
- Survival time (C57BU6J mice [3]; 25 mg/kg, intraperitoneal systematic injection): No ataxia
- Survival time (C57BU6J mice [3]; 35 mg/kg, intraperitoneal systematic injection): >120 h
- Survival time (C57BU6J mice [3]; 45 mg/kg, intraperitoneal systematic injection): 24 h
- Survival time (C57BU6J mice [3]; 50 mg/kg, intraperitoneal systematic injection): 8 h
- Survival time (C57BU6J mice [3]; 65 mg/kg, intraperitoneal systematic injection): 3 h
- Survival time (C57BU6J mice [3]; 70 mg/kg, intraperitoneal systematic injection): 0.25 h
- Tyrosine Hydrolase (TH) expression in substantia nigra compacta (SNc) (Tyrosine Hydrolase (TH)): similarly expressed
- performance in the rotarod test (C57BU6J mice [4]; 3AP local injection in the cerebellum, daytime, FIG. 2A, WT 29.32): 14.32±1.02 rpm
- motor learning, percentage change in rotarod performance (C57BU6J mice [4]; training time 5 min, Wild Type 76.4): −4.8 ± 4.22%
- motor learning, percentage change in rotarod performance (C57BU6J mice [4]; training time 10 min, Wild Type 88.6): −4.1 ± 7.32%
- motor learning, percentage change in rotarod performance (C57BU6J mice [4]; training time 15 min, Wild Type 95.46): −4.5 ± 4.12%
- rotarod-based motor behavior (C57BU6J mice [4]; day, WT day 28.00): 14.57±1.38 rpm
- rotarod-based motor behavior (C57BU6J mice [4]; night, WT night 17.25): 15.22±0.78 rpm
- rotarod performance (C57BU6J mice [4]; local 3AP-intoxicated mice without Bmal1 viral vector, FIG. 4G, wildtype 30): 14.2±0.130 rpm
- expression of calbindin in the Purkinje cell layer (relative intensity) (Calbindin): 0.123±0.052
- Relative level of mRNA, Cry1 (Cry1; 25 mg 3AP, Cerebellum): 0.82
- Relative level of mRNA, Cry1 (Cry1; 25 mg 3AP, Inferior Olive): 0.74
- Relative level of mRNA, Cry1 (Cry1; 25 mg 3AP, Motor cortex): 0.87
- Relative level of mRNA, Cry1 (Cry1; 25 mg 3AP, Striatum): 0.91
- Relative level of mRNA, Cry1 (Cry1; 35 mg 3AP, Cerebellum): 0.66
- Relative level of mRNA, Cry1 (Cry1; 35 mg 3AP, Inferior Olive): 0.70
- Relative level of mRNA, Cry1 (Cry1; 35 mg 3AP, Motor cortex): 0.68
- Relative level of mRNA, Cry1 (Cry1; 35 mg 3AP, Striatum): 0.89
- slips in the elevated beam test (C57BU6J mice [5]; 3AP local injection in the cerebellum, FIG. 2B, WT 0.87): 10.46±0.92
- number of slips, elevated beam (C57BU6J mice [5]; 3AP-induced ataxia mice, day, FIG. 1D, WT day 0.93): 10.23±0.23
- number of slips, elevated beam (C57BU6J mice [5]; 3AP-induced ataxia mice, night, FIG. 1D, WT night 9.92): 10.24±0.23
- number of slips, elevated beam (C57BU6J mice [5]; local 3AP-intoxicated mice without Bmal1 viral vector, FIG. 4H, wildtype 0.85): 10.7±0.176
